Reference: patent US7371776B2, “Methods and compositions for treating cancer” (Mars, Incorporated, priority 2004, dated 2008)

Legend:
Format in all cases: cell-based, human
[1] = system: FKHR (Ser256); experiment: LPS multi-well plate phosphorylation screen in MDA MB-231 cells; conditions: 100 μg/mL, 72 hours, densitometry vs control
Excerpt: (§1) Layered Protein Scanning (LPS) is a method for screening liquid protein samples in a high throughput manner using multi-well plates [Englert, C. R. et al., Cancer Res., 60: 1526-1530, 2000], and conducted by 20/20 Gene Systems, Inc., (Rockville, Md.). In short, cells are lysed and protein extract loaded into the wells of vacuum manifold and transferred through a stack of membranes. From each set of samples, up to five dot blot membranes are generated.
(§2) MDA MB-231 human breast cancer cells were treated, with or without 100 μg/mL pentamer, for 48 and 72 hours. Cells were lysed in LPS/MWP lysis buffer (20/20 Gene Systems, Inc.). Protein concentration was determined using BCA Protein Assay Kit (Pierce, Rockford, Ill.). Ten and 20 μg of each protein sample was loaded in duplicate onto Bio-Dot Microfiltration Apparatus (BioRad, Philadelphia, Pa.) and transferred through a 5-membrane stack as recommended by the manufacturer (20/20 Gene Systems). After the transfer, all of the membranes were biotinylated in 1 mg/mL EZ-Link Sulfo-NHS-Biotin solution in 1×PBS for 10 minutes at room temperature (Pierce).
(§3) Membranes were incubated overnight at 4° C. with the antibodies shown in Table 1 (1:500 or 1:1000 dilution). The following day, membranes were washed in Tris-buffered saline with Tween 20 (0.1%) (TBST buffer) and incubated for 60 minutes at room temperature in a mixture of FluoroLink Cy 5-labeled Streptavidin (1:500, Amersham) and Fluorescein-labeled secondary anti-mouse or anti-rabbit antibody (1:2,000, Molecular Probes, Eugene, Oreg.), followed by washes in TBST. Membranes were dried and scanned on a Typhoon scanner (Amersham), and obtained images were analyzed with InageQuant software (Amersham). Data were plotted in Excel and statistically analyzed in JMP (SAS Institute, Inc., Cary, N.C.). Hierarchical clustering analysis was performed to evaluate segregation of samples into control and treated groups.

[2] = system: Stat 5 at Tyr 694; experiment: as above; conditions: 100 μg/mL
Excerpt: as §1, §2, §3

[3] = system: PKC-θ at Ser 643/676; experiment: as above; conditions: 100 μg/mL, 72 hrs
Excerpt: as §1, §2, §3

[4] = system: p53; experiment: as above; conditions: 100 μg/mL
Excerpt: as §1, §2, §3

[5] = system: PKC-δ at Ser643; experiment: as above; conditions: 100 μg/mL
Excerpt: as §1, §2, §3

[6] = system: pRb at Ser 795 and Ser807/811; experiment: as above; conditions: 100 μg/mL
Excerpt: as §1, §2, §3

[7] = system: SAPK/JNK at Thr183/Tyr185; experiment: as above; conditions: 100 μg/mL
Excerpt: as §1, §2, §3

[8] = system: Cdc2 (Tyr15); experiment: as above; conditions: 100 μg/mL, densitometry vs control
Excerpt: as §1, §2, §3

[9] = system: Stat5; experiment: Confirmation of LPS results by immunoblotting, MDA MB-231 cells; conditions: PVDF membranes
Description: (§4) The proteins affected by pentamer, as detected by LPS, were analyzed further by immunoblotting. Antibodies against the following proteins were used: Cdc2 (Tyr15), FKHR (Ser256), p53 (Ser37, Ser46 and Ser392), PKC-δ (Ser643), PKC-θ (Ser643/676), pRb (Ser795 and Ser807/811), SAPK/JNK (Thr183/Tyr185) and Stat 5 (Tyr694) (all antibodies were obtained from Cell Signaling).
(§5) Protein pellets from pentamer-treated MDA MB-231, MDA MB-468 and MCF-7 cells and corresponding DMSO-treated controls were lysed in PBS with 1% SDS and sonicated for 15 seconds at a power of five watts. Samples were then centrifuged at 10,000 rpm and supernatants transferred into clean tubes. Protein concentration was determined as descried above. Ten jig of each protein sample was separated by PAGE on 4-20% gradient gels (BioRad, Philadelphia, Pa.). Gels were either transferred to PVDF membranes (BioRad) or P-FILM membrane (stacks of 10 membranes) according to the manufacturer's instructions (20/20 Gene Systems). PVDF membranes were blocked for 1 hour in 0.5% casein solution (Vector Laboratories, Burlingame, Calif.), prior to incubation with primary antibodies. […] The membranes were incubated overnight at 4° C. in 1:500 dilutions of primary antibodies, washed three times in TBST for five minutes, incubated in HRP-conjugated secondary antibodies, washed again and incubated in ECL Plus Reagent (Amersham). Signals were visualized on BIOMAX MR film (Kodak, Rochester, N.Y.). Following incubation with primary antibodies, membranes were incubated in anti-GAPDH antibody (1:500 dilution; Chemicon, Temecula, Calif.). The presence of this protein was visualized with secondary antibody conjugated to alkaline phosphatase DuoLux substrate (Vector Laboratories).

[10] = system: SAPK/JNK; experiment: as above; conditions: PVDF membranes
Description: as §4, §5

[11] = system: PKC-θ; experiment: as above; conditions: PVDF membranes
Description: as §4, §5

[12] = system: p53; experiment: as above
Description: as §4, §5
(§6) As a control, the PVDF membranes probed for Cdc2, FKHR, p53, and pRb were stripped according to manufacturer's instructions (Cell Signaling). After striping, membranes were washed four times for five minutes each in TBST buffer, blocked as described above, washed again and incubated in primary antibodies overnight at 4° C. The primary antibodies used were anti-total Cdc2 (1:1000 dilution, Cell Signaling), anti-total FKHR (1:1000 dilution, Cell Signaling), anti-endogenous p53 (1:1000, Cell Signaling) and anti-endogenous pRb (1:1000, Santa Cruz). The next day, membranes were washed and incubated in HRP conjugated secondary antibodies, washed again and incubated in ECL Plus Reagent (Amersham). Signals were detected as previously described. To test equality of loading, membranes were probed with anti-GAPDH antibody (1:500 dilution; Chemicon, Temecula, Calif.) as described above.

[13] = system: Cdc2; experiment: as above
Description: as §4, §5, §6

[14] = system: FKHR; experiment: as above
Description: as §4, §5, §6

[15] = system: pRb; experiment: as above
Description: as §4, §5, §6

[16] = LPS analysis and PVDF membrane experiments

With Oc1cc(O)c2c(c1)O[C@H](c1ccc(O)c(O)c1)[C@H](O)[C@H]2c1c(O)cc(O)c2c1O[C@H](c1ccc(O)c(O)c1)[C@H](O)[C@H]2c1c(O)cc(O)c2c1O[C@H](c1ccc(O)c(O)c1)[C@H](O)[C@H]2c1c(O)cc(O)c2c1O[C@H](c1ccc(O)c(O)c1)[C@H](O)[C@H]2c1c(O)cc(O)c2c1O[C@H](c1ccc(O)c(O)c1)[C@H](O)C2 [pentamer, pentameric procyanidin] the “phosphorylation of FKHR (Ser256) decreased” value [1] was 63%, the “Stat 5 phosphorylation at Tyr 694 decreased” value ([2]; 48 hrs) was 28% and the “Stat 5 phosphorylation at Tyr 694 decreased” value ([2]; 72 hrs) was 33%. The “phosphorylation of PKC-θ at Ser 643/676 decreased” value [3] was 49%, the “phosphorylation of p53 residues Ser6, Ser9, Ser20 and Ser15” value ([4]; LPS) was “not significantly affected” and the “phosphorylation of p53 (antibody mix at Ser37, 46 and 392) decreased” value ([4]; post treatment, densitometry vs control) was 36%. The “phosphorylation of PKC-δ at Ser643 decreased” value ([5]; 48 hrs) was 22%, the “phosphorylation of PKC-δ at Ser643 decreased” value ([5]; 72 hrs) was 49% and the “phosphorylation of pRb at Ser 795 and Ser807/811 decreased” value ([6]; 48 hrs) was 36%. For the same molecule, the “phosphorylation of pRb at Ser 795 and Ser807/811 decreased” value ([6]; 72 hrs) was 40%, the “phosphorylation of SAPK/JNK at Thr183/Tyr185 decreased” value ([7]; 48 hrs) was 34% and the “phosphorylation of SAPK/JNK at Thr183/Tyr185 decreased” value ([7]; 72 hrs) was 26%. For the same molecule, the “phosphorylation of Cdc2 (Tyr15) decreased” value ([8]; 48 hrs) was 31%, the “phosphorylation of Cdc2 (Tyr15) decreased” value ([8]; 72 hrs) was 45% and the “confirmation of LPS result on Stat5 by immunoblotting” value [9] was “not confirmed”. For the same molecule, the “confirmation of LPS result on SAPK/JNK by immunoblotting” value [10] was “not confirmed”, the “confirmation of LPS result on PKC-θ by immunoblotting” value [11] was “not confirmed” and the “total protein expression of p53” value [12, 16] was “not affected”. For the same molecule, the “effect on phosphorylated form of p53 (Ser37, Ser46 and Ser392)” value ([12]; immunoblot, 72 hrs) was “had an effect”, the “total protein expression of Cdc2” value [13, 16] was “not affected” and the “effect on phosphorylated form of Cdc2 (Tyr15)” value ([13]; immunoblot, 48 and 72 hrs) was “had an effect”. The “total protein expression of FKHR” value [14, 16] was “not affected”, the “effect on phosphorylated form of FKHR (Ser256)” value ([14]; immunoblot, 48 and 72 hrs) was “had an effect” and the “pRb, both total and phospho-specific sites” value ([15]; PVDF membrane reprobed) was “affected”. The “effect on phosphorylated form of pRb (Ser795 and Ser807/811)” value ([15]; immunoblot, 48 and 72 hr) was “had an effect”.
